Reference: US20160081917A1, “STEM CELL COMPOSITION FOR VENOUS ADMINISTRATION” (K-STEMCELL CO., LTD, priority 2013, published 2016)

How the values were obtained:
Type in all cases: cell-based, human
[1] = test system: adipose mesenchymal stem cells; assay: Viability of stem cells suspended in physiological saline containing acetylsalicylic acid
Procedure: The adipose mesenchymal stem cells isolated in Example 1 were treated with trypsin, and then suspended at a concentration of 1.0×10^7 cells in physiological saline containing varying concentrations of acetylsalicylic acid (Sigma; A5376), after which the viability of the cells at 12 hours and 24 hours after the suspension was observed. The physiological saline containing acetylsalicylic acid was prepared by adding acetylsalicylic acid to physiological saline at varying concentrations and sonicating it at 37° C. for 30 minutes.

[2] = test system: adipose mesenchymal stem cells; assay: FACS analysis of surface marker expression after suspension in saline containing aspirin lysine and cold storage
Procedure: (§1) The adipose mesenchymal stem cells isolated in Example 1 were treated with trypsin, and then suspended at a concentration of 1.0×10^7 cells in physiological saline containing varying concentrations of aspirin lysine (Shin Poong Pharm. Co., Ltd, Korea). Then, the cells were incubated for 5 days, and the cell count of the cells was measured. In addition, the cells were cold-stored for 24 hours, and then the characteristics of the cells were analyzed by FACS.

[3] = test system: adipose mesenchymal stem cells; assay: Viability and cell count after 5 days of incubation following suspension in saline containing aspirin lysine; settings: varying concentrations in physiological saline
Procedure: as §1

[4] = 0.1 mg/10 ml, cold-stored for 24 hours, FACS

Row | Structure (SMILES) | cytotoxicity ([1]; 1.0 mg or more added to 10 ml of physiological saline) | Viability ([1]; 1.0 mg/10 ml in physiological saline, 12 hours after suspension) [%] | Viability ([1]; 1.0 mg/10 ml in physiological saline, 24 hours after suspension) [%] | Viability ([1]; 2.0 mg/10 ml in physiological saline, 12 hours after suspension) [%] | Viability ([1]; 2.0 mg/10 ml in physiological saline, 24 hours after suspension) [%] | Viability ([1]; 5.0 mg/10 ml in physiological saline, 12 hours after suspension) [%] | Viability ([1]; 5.0 mg/10 ml in physiological saline, 24 hours after suspension) [%] | Expression rate CD29 [2, 4] [%] | Expression rate CD31 [2, 4] [%] | Expression rate CD44 [2, 4] [%] | Expression rate CD45 [2, 4] [%] | Expression rate CD90 [2, 4] [%] | Expression rate CD105 [2, 4] [%] | characteristics of the adipose mesenchymal stem cells (FACS) ([2]; suspended 24 hours in aspirin-containing saline, then cold-stored 24 hours) | cell viability depending on concentration [3] | count of the cells after 5 days of incubation [3]
1 | CC(=O)Oc1ccccc1C(=O)O [acetylsalicylic acid] | cytotoxic | 50 | 10 | 20 | 10 | 10 | 5 | – | – | – | – | – | – | – | – | –
2 | CC(=O)Oc1ccccc1C(=O)O [aspirin lysine] | – | – | – | – | – | – | – | 99.97 | 0.21 | 99.25 | 0.17 | 99.66 | 99.89 | not dependent on the concentration of aspirin lysine | somewhat decreased depending on the concentration of aspirin lysine, but this decrease was not significant | did not almost differ between the concentrations of aspirin lysine
